Laboratory results from patent publication US11071731B2, “Allosteric modulators of the mu opioid receptor” (Chiromics, LLC, priority 2017, dated 2021).
pEC50: −log10 of the molar value. Where two headings read alike, the source gives them in different places.

Tests used:
[1] = biological target: mu opioid receptor subtype OPRM1 (Homo sapiens, UniProt P35372); assay: β-arrestin recruitment assay, antagonist format; assay type: cell-based; conditions: Table 18
Procedure: Beta-Arrestin Pathway: The PathHunter β-arrestin assay monitors the activation of a GPCR in a homogenous, non-imaging assay format using a technology developed by DiscoveRx called Enzyme Fragment Complementation (EFC) with beta-galactosidase (β-Gal) as the functional reporter. […] EA is fused to β-Arrestin and ED is fused to the GPCR of interest. When the GPCR is activated and β-arrestin is recruited to the receptor, ED and EA complementation occurs, restoring β-gal activity, which is measured using chemiluminescent PathHunter Detection Reagents.
Similar results were obtained when agonist and antagonist activity were assayed using cAMP signaling as the readout.

[2] = biological target: T1, mu opioid receptor (MOR) (Homo sapiens, UniProt P35372); assay: PathHunter β-arrestin recruitment assay, PAM mode with EC20 endomorphin-1; assay type: cell-based; conditions: for allosteric activity for β-arrestin recruitment: EC20 endomorphin-1 concentration of 4.5 nM
T1 sequence (P35372 whole entry, the tested form may be a part): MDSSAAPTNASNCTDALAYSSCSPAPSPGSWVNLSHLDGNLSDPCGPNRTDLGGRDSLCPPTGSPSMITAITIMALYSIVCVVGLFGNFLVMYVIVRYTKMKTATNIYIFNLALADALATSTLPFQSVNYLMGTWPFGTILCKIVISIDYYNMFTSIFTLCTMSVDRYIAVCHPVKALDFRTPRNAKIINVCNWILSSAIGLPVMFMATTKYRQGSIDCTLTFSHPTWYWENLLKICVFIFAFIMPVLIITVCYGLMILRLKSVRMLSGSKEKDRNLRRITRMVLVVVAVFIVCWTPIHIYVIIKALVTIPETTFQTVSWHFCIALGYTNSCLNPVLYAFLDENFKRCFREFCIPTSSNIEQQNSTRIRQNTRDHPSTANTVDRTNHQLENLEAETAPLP
Outline: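 Enzyme fragment complementation read-out: β-gal ED fragment fused to receptor, EA fused to β-arrestin, recruitment restoring β-gal activity detected by chemiluminescence. EC50 and percent maximal response derived for each compound.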

[3] = biological target: T1, mu opioid receptor (MOR); assay: Hit Hunter cAMP signaling assay (adenylyl cyclase inhibition), PAM mode with EC20 endomorphin-1; assay type: cell-based; conditions: for allosteric activity for cAMP signaling: EC20 endomorphin-1 concentration of 0.45 nM; for Max. Response: cAMP
[4] = biological target: T2, MOR (Homo sapiens, UniProt P35372); assay: cell-based; conditions: EC20 Oxycodone agonism of MOR; for pEC50: RC50, cAMP; for Max. Response: cAMP
T2 sequence (P35372 whole entry): as the sequence (P35372 whole entry, the tested form may be a part) above

[5] = biological target: T2, MOR; assay: cell-based; conditions: EC20 Oxycodone agonism of MOR; for pEC50: RC50, β-arrestin; for Max. Response: β-arrestin
[6] = biological target: T2, MOR; assay: cell-based; conditions: EC20 morphine agonism of MOR; for pEC50: RC50, β-arrestin; for Max. Response: β-arrestin
[7] = biological target: T2, MOR; assay: cell-based; conditions: EC20 morphine agonism of MOR; for pEC50: RC50, cAMP; for Max. Response: cAMP
[8] = biological target: T2, MOR; assay type: cell-based; conditions: β-arrestin; EC20 EM2 agonism of MOR
[9] = biological target: T2, MOR; assay type: cell-based; conditions: cAMP; EC20 EM2 agonism of MOR
[10] = maximal response for β-arrestin recruitment
[11] = β-arrestin recruitment, read-out: β-arr. EC50
[12] = adenylyl cyclase inhibition, read-out: cAMP EC50
[13] = maximal response for adenylyl cyclase inhibition
[14] = β-arrestin, EC20 EM-1 agonism of MOR
[15] = β-arrestin, EC20 EM-1 agonism of MOR, read-out: RC50 (the source's name)
[16] = RC50, cAMP, EC20 EM-1 agonism of MOR
[17] = cAMP EC50, adenylyl cyclase inhibition
[18] = maximal response, β-arrestin recruitment
[19] = maximal response, adenylyl cyclase inhibition

Sequence of mu opioid receptor subtype OPRM1 (P35372 whole entry, the tested form may be a part): as above

Row | Compound | IC50 [1] | allosteric activity for β-arrestin recruitment [2] | β-arr Max. Resp. [2, 10] | pEC50 [2, 11] | allosteric activity for cAMP signaling [3] | pEC50 [3, 12] | cAMP Max. Resp. [3, 13] | pEC50 [3, 17] | β-arr Max. Resp. [2, 18] | cAMP Max. Resp. [3, 19] | further results
1 | COc1ccc(C2C(C(F)(F)F)CCN2S(=O)(=O)c2ccc(Cl)cc2)cc1Br (single isomer, unassigned) [Compound 108] | > 25 µM | moderate positive allosteric effect | F (F represents a maximal response of > 60%) | < 5.68 | moderate positive allosteric effect | < 5.68 | E (E represents a maximal response of 40-60%) |  |  |  | 
2 | COc1ccc(C2CC(C(F)(F)F)CN2S(=O)(=O)c2ccc(Cl)cc2)cc1Br (single isomer, unassigned) [Compound 109] | > 25 µM | moderate positive allosteric effect | F (F represents a maximal response of > 60%) | < 5.68 | moderate positive allosteric effect | > 6.15 | E (E represents a maximal response of 40-60%) |  |  |  | 
3 | COc1ccc(C2N(S(=O)(=O)c3ccc(Cl)cc3)CCC2(F)F)cc1Br (single isomer, unassigned) [Compound 110] | > 25 µM | moderate positive allosteric effect | F (F represents a maximal response of > 60%) | < 5.68 | moderate positive allosteric effect | < 5.68 | F (F represents a maximal response of > 60%) |  |  |  | 
4 | Fc1cnc(Cl)nc1N1CCCCC1c1cccc(C(F)(F)F)c1 (single isomer, unassigned) [compound 8] |  |  | F (F represents a maximal response of > 60%) | > 6.15 |  |  | F (F represents a maximal response of > 60%) | 5.68 to 6.15 |  |  | pEC50 [4]: 5.72; Max. Response [4]: 56; pEC50 [5]: 4.89; Max. Response [5]: 343; Max. Response [2, 14]: 213; pEC50 [2, 15]: 6.48; pEC50 [3, 16]: 6.08; Max. Response ([3]; EC20 EM-1 agonism of MOR): 76; pEC50 [6]: 5.15; Max. Response [6]: 487; pEC50 [7]: 5.70; Max. Response [7]: 44
5 | COc1ccc(C2C3CCC(C3)N2S(=O)(=O)c2ccc(Cl)cc2)cc1Br (centres unmarked) [Compound 177] | > 25 µM | moderate positive allosteric effect | F (F represents a maximal response of > 60%) | < 5.68 | moderate positive allosteric effect | < 5.68 | E (E represents a maximal response of 40-60%) |  |  |  | 
6 | Fc1ccc(Cl)cc1CN1CCCCC1c1cccc(C(F)(F)F)n1 (centres unmarked) [compound 2] |  | high positive allosteric activity | F (F represents a maximal response of > 60%) | > 6.15 | high positive allosteric activity |  | F (F represents a maximal response of > 60%) | > 6.15 |  |  | pEC50 [4]: < 4.60; Max. Response [4]: 5; pEC50 [5]: 4.87; Max. Response [5]: 126; Max. Response [8]: 97; signaling preference β-arrestin vs cAMP ([2]; comparison of β-arrestin and cAMP assays): roughly equivalent signaling for β-arrestin and cAMP; β-arr. Max Resp. ([2]; maximal response for β-arrestin recruitment, Table 3): 72; pEC50 ([2]; β-arrestin recruitment, Table 3, read-out: β-arr. EC50): 6.81; Max. Response [2, 14]: 143; pEC50 [2, 15]: 6.44; Max. Response [9]: 83; pEC50 [3, 16]: 6.24; EC50 ([3]; cAMP EC50 (nM), adenylyl cyclase inhibition, Table 3): 170 nM; Max. Response ([3]; EC20 EM-1 agonism of MOR): 81; cAMP Max Resp. ([3]; maximal response for adenylyl cyclase inhibition, Table 3): 85; pEC50 [6]: 5.02; Max. Response [6]: 156; pEC50 [7]: < 4.60; Max. Response [7]: 26
7 | Fc1cnc(Cl)nc1N1CCCCC1c1cccc(C(F)(F)F)n1 (centres unmarked) [compound 123] |  |  | F (F represents a maximal response of > 60%) | 5.68 to 6.15 |  |  | E (E represents a maximal response of 40-60%) | > 6.15 |  |  | pEC50 [4]: < 4.60; Max. Response [4]: 0; pEC50 [5]: < 4.60; Max. Response [5]: 17; Max. Response [2, 14]: 190; pEC50 [2, 15]: 5.99; pEC50 [3, 16]: 6.23; Max. Response ([3]; EC20 EM-1 agonism of MOR): 43; pEC50 [6]: 4.85; Max. Response [6]: 59; pEC50 [7]: < 4.60; Max. Response [7]: 0
8 | Fc1cc(C2CC(F)CN2c2nc(Cl)ncc2F)cc(C(F)(F)F)c1 (centres unmarked) [compound 468] |  |  |  | < 5.68 |  | < 5.68 |  |  | F (F represents a maximal response of > 60%) | F (F represents a maximal response of > 60%) | 
9 | FC(F)(F)c1cccc(C2CCCCN2c2ccnc(Cl)n2)n1 (centres unmarked) [compound 469] |  |  |  | < 5.68 |  |  |  | < 5.68 | F (F represents a maximal response of > 60%) | D (D represents a maximal response of < 40%) | 
10 | Fc1ccc(C2CCCCN2c2ccnc(Cl)n2)cc1Cl (centres unmarked) [compound 470] |  |  |  | < 5.68 |  |  |  | < 5.68 | F (F represents a maximal response of > 60%) | E (E represents a maximal response of 40-60%) | 
11 | Cc1cc(C)cc(N2CCCCC2c2ccc(F)c(Cl)c2)c1 (centres unmarked) [compound 471] |  |  |  | < 5.68 |  |  |  | < 5.68 | F (F represents a maximal response of > 60%) | D (D represents a maximal response of < 40%) | 
